Residue numbers refer to the chain shown, from its start. pKi: −log10 of the molar value.

Common to all, as to assay: VKOR Activity Assay
Holding throughout (conditions): pH 7.4; 37 °C

For test [1], the target named is T1, Vitamin K epoxide reductase complex subunit 1 (Rattus norvegicus, UniProt Q6TEK4).
T1 sequence (Q6TEK4 whole entry): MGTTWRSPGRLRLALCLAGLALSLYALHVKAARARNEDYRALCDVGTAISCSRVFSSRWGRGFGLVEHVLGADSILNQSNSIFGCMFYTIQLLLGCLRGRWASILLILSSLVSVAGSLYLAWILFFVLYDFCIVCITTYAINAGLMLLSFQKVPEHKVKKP
The method, then:
(§1) Briefly, standard reactions were performed in 200 mM Hepes buffer, pH 7.4, containing 150 mM KCl, 1 mM dithiothreitol, 0.25 to 2 g liter-1 of total proteins containing membrane VKORC1. The reaction was started by the addition of vit K1>O solution in 1% Triton X-100 and incubated at 37 °C for 30 min. […] After incubation at 37 °C for 30 min, the reaction was stopped by adding 4 ml of iced 1:1 isopropyl alcohol/hexane solution. After centrifugation at 5000 x g for 10 min, the hexane layer was removed and driedunder nitrogen. The dry residue was immediately dissolved in 0.2 ml of isopropyl alcohol, and the reaction product was analyzed by liquid chromatography-mass spectrometry.

Test [2] deals with T2, Vitamin K epoxide reductase complex subunit 1-like protein 1 (Rattus norvegicus, UniProt Q6TEK3).
T2 sequence (Q6TEK3 whole entry): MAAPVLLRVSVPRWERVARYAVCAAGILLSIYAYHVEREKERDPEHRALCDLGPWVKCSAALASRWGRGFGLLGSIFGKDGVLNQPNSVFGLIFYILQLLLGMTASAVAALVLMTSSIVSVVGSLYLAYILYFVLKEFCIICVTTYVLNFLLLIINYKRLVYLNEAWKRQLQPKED
As to the method:
as §1

For test [3], the target named is T3, Vitamin K epoxide reductase complex subunit 1-like protein 1 (Homo sapiens, UniProt Q8N0U8).
T3 sequence (Q8N0U8 whole entry): T2 sequence (Q6TEK3 whole entry) with V112I, V119M, V143I, T144V, E175Q
The method, then:
as §1

One may read the pKi as the negative decadic logarithm of the Ki, by convention in mol/L. Read a high pKi as a low Ki. Take `CC(=O)C[C@H](c1ccccc1)c1c(O)c2ccccc2oc1=O` [2-hydroxy-3-(3-oxo-1-phenylbutyl)-4H-chromen-4-one]: the pKi in test [1] was 6.22; in test [2], 4.49; in test [3], 4.28.
